{"source": "paper PMC13422867", "about": "“An orally available PfPKG inhibitor blocks Plasmodium’s infection of the liver” (PLOS Pathogens, 2026)", "key": {"P. falciparum 3D7": {"test_system": "P. falciparum 3D7", "assay": "Asexual blood stage growth inhibition, SYBR Green I, 72 h", "format": "cell-based", "conditions": "Plasmodium falciparum, mean (standard error) of 3 biological replicates", "protocol": "(§1) Asexual blood stage P. falciparum strains, including 3D7 and drug-resistant field isolates, were cultured using standard conditions in RPMI 1640 with 0.5% Albumax as described previously. EC₅₀ values were determined using a SYBR Green I fluorescence assay after 72 h of compound exposure. EC50 values were derived by nonlinear regression in GraphPad Prism version 10."}, "P. falciparum K1": {"test_system": "P. falciparum K1", "assay": "Asexual blood stage growth inhibition, SYBR Green I, 72 h", "format": "cell-based", "conditions": "Plasmodium falciparum, mean (standard error) of 3 biological replicates", "protocol": "as §1"}, "P. falciparum TM90_C2B": {"test_system": "P. falciparum TM90_C2B", "assay": "Asexual blood stage growth inhibition, SYBR Green I, 72 h", "format": "cell-based", "conditions": "Plasmodium falciparum, mean (standard error) of 3 biological replicates", "protocol": "as §1"}, "P. falciparum 7G8": {"test_system": "P. falciparum 7G8", "assay": "Asexual blood stage growth inhibition, SYBR Green I, 72 h", "format": "cell-based", "conditions": "Plasmodium falciparum, mean (standard error) of 3 biological replicates", "protocol": "as §1"}, "[1]": {"assay": "Pharmacokinetics in mice after oral or intravenous dosing", "format": "in vivo", "protocol": "Plasma concentrations were measured by LC-MS/MS. Non-compartmental PK parameters were calculated using Phoenix WinNonlin. Human half-life predictions were derived by allometric scaling for half-life (t1/2): t1/2,human = t1/2,mouse × (Whuman/Wmouse)^0.25, where W = body weight. The exponent 0.25 is commonly used for time-based pharmacokinetic parameters. We assume an average mouse weight of 0.025 kg and an average human weight of 70 kg."}, "[2]": {"test_system": "P. berghei sporozoites (PbLuc-GFP)", "assay": "In vivo chemoprotective efficacy against sporozoite liver infection", "set-up": "species or system Plasmodium berghei in mice", "conditions": "10 mg/kg x 3; for Prepatent period mean ± sd: blood stages by flow cytometry", "protocol": "In the first experiment, mice were administered three doses, intravenously (IV) or orally (PO), of compound (10 mg/kg) - two prior to sporozoite inoculation to block sporozoite invasion of hepatocytes and the third at 36 hpi to prevent egress of liver stages (Fig 3A). In vivo bioluminescent imaging (IVIS) of mice was utilized to detect and quantify relative parasitemia in the liver and flow cytometry was used to detect the appearance of blood stage parasites. Vehicle-treated mice were used as a negative control.\nIn vivo chemoprotective efficacy was evaluated using luciferase-expressing P. berghei ANKA sporozoites. […] Liver stage parasite burden was measured 42–48 h p.i. by bioluminescence imaging (IVIS Spectrum). Photon flux from the liver region was quantified using Living Image software. All animal procedures were approved by the Rutgers Institutional Animal Care and Use Committee (IACUC)."}, "[3]": {"test_system": "P. falciparum sporozoites", "assay": "Sporozoite infection of primary human hepatocytes, high-content imaging", "format": "cell-based, Plasmodium falciparum", "conditions": "Plasmodium falciparum, Hepatocyte", "protocol": "Liver stage antimalarial activity was evaluated using sporozoites from P. falciparum (NF54 strain) and P. cynomolgi bastianellii (B strain). P. falciparum-infected Anopheles stephensi mosquitoes were reared at WRAIR, while P. cynomolgi-infected Anopheles dirus mosquitoes were obtained from the Armed Forces Research Institute of Medical Sciences (AFRIMS), Thailand. Sporozoites were isolated by dissecting salivary glands under sterile conditions, followed by gentle mechanical disruption. Freshly isolated sporozoites were immediately used for hepatocyte infection. […]\nCells were fixed using 4% paraformaldehyde for 20 minutes at room temperature, followed by three PBS washes, and stored at 4°C until further processing. Parasite detection was performed using species-specific primary antibodies, with P. cynomolgi parasites labeled using a mouse monoclonal anti-Plasmodium GAPDH antibody (1.6 μg/mL, European Malaria Reagent Repository) and P. falciparum parasites detected using a rabbit polyclonal anti-PfHSP70 antibody (1:70 dilution, LS Bio, USA). […]\nHigh-content imaging was performed using the Operetta CLS system (Revvity) and image analysis was performed with Harmony software version 4.9 (Revvity, Waltham, MA, USA). Images were acquired at 10x or 20x magnification using DAPI and TRITC fluorescence channels. […]"}, "[4]": {"test_system": "mutant P. falciparum parasites carrying a Thr618Gln substitution", "conditions": "cited from earlier work"}, "[5]": {"conditions": "mouse, plasma, iv, 10 mg/kg, mice, IV 10 mg/kg, average of 3 mice"}, "[6]": {"conditions": "mouse, plasma, po, 10 mg/kg, mice, PO 10 mg/kg, average of 3 mice"}}, "note": "pIC50: −log10 of the molar value. Where two headings read alike, the source gives them in different places.", "data": [{"compound": "C[C@@H]1CN(C)CC[C@@H]1c1cc(-c2ccncc2)c(-c2ccc(F)cc2)[nH]1.Cl.Cl", "note": "[RUPB-61, 4-{5-[(3S,4S)-1,3-Dimethylpiperidin-4-yl]-2-(4-fluorophenyl)-1H-pyrrol-3-yl}pyridine Dihydrochloride]", "values": [{"measurement": "pIC50", "setting": "P. falciparum 3D7", "result": 7.30}, {"measurement": "pIC50", "setting": "P. falciparum K1", "result": 7.38}, {"measurement": "pIC50", "setting": "P. falciparum TM90_C2B", "result": 6.86}, {"measurement": "pIC50", "setting": "P. falciparum 7G8", "result": 7.54}, {"measurement": "human half-life range by allometric scaling", "setting": "[1]; exponent 0.25, mouse 0.025 kg, human 70 kg", "result": "67.5 to 90", "unit": "h"}, {"measurement": "half-life in humans by allometric scaling", "setting": "[1]; humans, scaled from mouse oral half-life", "result": "48 to 96", "unit": "h"}, {"measurement": "plasma exposure maintained", "setting": "[1]; mice, 10 mg/kg, for 24 h", "result": "> 100", "unit": "nM"}, {"measurement": "Vss obs", "setting": "[1]; mice, IV 10 mg/kg, average of 3 mice, 10 mg/kg", "result": 47.29, "unit": "L/kg"}, {"measurement": "Bioavailability", "setting": "[1]; mice, PO vs IV 10 mg/kg, 10 mg/kg", "result": 91, "unit": "%F"}, {"measurement": "AUC(0-t)", "setting": "[1]; [5]", "result": 7.43, "unit": "µM·h"}, {"measurement": "half-life", "setting": "[1]; [5]", "result": 11.8, "unit": "h"}, {"measurement": "AUC(0-inf)", "setting": "[1]; mouse, plasma, iv, 10 mg/kg, mice, IV 10 mg/kg, average of 3 mice, read-out: AUC INF_obs", "result": 9.8, "unit": "µM·h"}, {"measurement": "clearance", "setting": "[1]; mouse, plasma, iv, 10 mg/kg, mice, IV 10 mg/kg, average of 3 mice, read-out: Cl_obs", "result": 49.2, "unit": "mL/min/kg"}, {"measurement": "Vd", "setting": "[1]; mouse, plasma, iv, 10 mg/kg, mice, IV 10 mg/kg, average of 3 mice, read-out: Vss obs", "result": 47.3, "unit": "L/kg"}, {"measurement": "clearance", "setting": "[1]; mouse, plasma, other: oral and intravenous, 10 mg/kg, mice, 10 mg/kg oral and intravenous, read-out: relative clearance", "result": "~50", "unit": "mL/min/kg"}, {"measurement": "Cmax", "setting": "[1]; [6]", "result": 630, "unit": "nM"}, {"measurement": "Tmax", "setting": "[1]; [6]", "result": 4.17, "unit": "h"}, {"measurement": "AUC(0-inf)", "setting": "[1]; mouse, plasma, po, 10 mg/kg, mice, PO 10 mg/kg, average of 3 mice, read-out: AUCINF_obs", "result": 8.9, "unit": "µM·h"}, {"measurement": "mice showing liver parasitemia as late as 144 hpi", "setting": "[2]; IV or PO, 10 mice, bioluminescent imaging", "result": "none"}, {"measurement": "mice displaying blood stage parasites in the 3 week observation period", "setting": "[2]; IV or oral", "result": "none"}, {"measurement": "No. of mice patent by D21/ No. of mice inoculated", "setting": "[2]; Intravenous", "result": "0/5"}, {"measurement": "Prepatent period mean ± sd", "setting": "[2]; Intravenous", "result": "negative"}, {"measurement": "No. of mice patent by D21/ No. of mice inoculated", "setting": "[2]; Oral", "result": "0/5"}, {"measurement": "Prepatent period mean ± sd", "setting": "[2]; Oral", "result": "negative"}, {"measurement": "pIC50", "setting": "[3]", "result": 7.10}, {"measurement": "increase in IC50 against Thr618Gln gatekeeper mutant parasites", "setting": "[4]", "result": 15, "unit": "fold"}]}]}
